Laboratory results taken from patent US20130059900A1, “CRYSTAL FORM I OF (S)-4-HYDROXY-2-OXO-1-PYRROLIDINE ACETAMIDE, PREPARING METHOD AND USE THEREOF” (priority 2010, published 2013).

System: rats having permanent occlusion of the bilateral carotid arteries
Experiment: Morris Water Maze, memory dysfunction of rats caused by chronic cerebral ischemia
Type: in vivo, SD male rats
Details: once per day for 37 days; for swimming time of the rats in the target: cerebral ischemia rats
Protocol: The protective effects of crystal form I of (S)-oxiracetam on memory dysfunction of rats caused by chronic cerebral ischemia. Material and method: The crystal form I of (S)-oxiracetam prepared in Example 1 and oxiracetam (batch number: 20071101, from Dong Ze Pharmaceutical Science and Technology Co., Ltd., Chong Qing, China) were prepared with normal saline solution freshly on being used. 40 SD male rats were used as experimental animals, and each of them was in a weight of 190 g to 220 g (purchased from Southwest Hospital, Chong Qing, China). The experimental animals were separated into four groups at random (10 animals per group): sham-operation group, cerebral ischemia group, experimental group with treatment of crystal form I of (S)-oxiracetam, control group with treatment of oxiracetam. The experimental group was treated with 100 mg/kg crystal form I of (S)-oxiracetam by intragastric administration, while the control group was treated with 200 mg/kg oxiracetam by intragastric administration, and both of the two group were treated once per day for 37 days since the day of beginning the surgery. The rats having permanent occlusion of the bilateral carotid arteries were used as model animals of cerebral ischemia group. The cerebral ischemia group, the experimental group and the control group were abdominally anaesthetized by 40 mg/kg pentobarbital natrium. The No. 4 threads were used to separate and ligate the bilateral carotid arteries. The arteries were cut at a position between the near and the far ligation points, and then the wounds made by cut were surgically stitched. The sham-operation group underwent surgery of separation of the bilateral carotid arteries and the wounds made by the surgeries were surgically stitched right away. The body temperature of the animals are maintained during the surgeries. Morris Water Maze system was used to assayed learning and memory ability of rats (diameter: 120 cm, height: 40 cm; purchased from Institute of Materia Medica (IMM), Chinese Academy of Medical Sciences & Peking Union Medical College). […]

## NC(=O)CN1CC(O)CC1=O (racemic) [oxiracetam, reference compound]
200 mg/kg intragastric, oxiracetam control group
  swimming time of the rats in the target: 31.23 ± 5.03 s

## NC(=O)CN1C[C@@H](O)CC1=O [crystal form I of (S)-oxiracetam, (S)-4-hydroxy-2-oxo-1-pyrrolidine acetamide]
100 mg/kg intragastric, vs 20.18±5.26 seconds, P<0.01
  swimming time of the rats in the target: 35.23 ± 7.03 s
100 mg/kg intragastric, compared with sham-operation group, cerebral ischemia group and oxiracetam control group
  escape latent periods: shorter escape latent periods
